Assay results as given in patent US6916905B2, “Dmt-Tic di-and tri-peptidic derivatives and related compositions and methods of use” (The United States of America as represented by the …, priority 2000, dated 2005).
“Also recorded” adds a separate entry of the source. Read-outs that look alike come from different tables or passages of the source. Non-standard residues stand in square brackets, D forms with d. Residues, ends and D or L forms follow the SMILES beside them. ξ: configuration not given here. *: point of attachment. Dmt = Cc1cc(O)cc(C)c1C[C@H](N)C(=O)O; ξDmt = Cc1cc(O)cc(C)c1CC(N)C(=O)O; Tic = O=C(O)[C@@H]1Cc2ccccc2CN1; NHNH2 = NN*

Tests used:
δ-opioid receptors [1] = target: T1, δ-opioid receptors (Rattus norvegicus, UniProt P33533); experiment: Rat brain synaptosome (P2) binding, agonist [3H]DPDPE (Example 47); settings: for Agonist K1μ/Kiδ: selectivity, Kiδ from agonist radioligand [3H]DPDPE; for δ/μ selectivity, in words / δ affinity, in words: from Table II binding
T1 construct: assayed with a rat brain synaptosomal preparation (P2); from tissue; host or cells: rat brain P2 synaptosomes
T1 sequence (P33533 whole entry): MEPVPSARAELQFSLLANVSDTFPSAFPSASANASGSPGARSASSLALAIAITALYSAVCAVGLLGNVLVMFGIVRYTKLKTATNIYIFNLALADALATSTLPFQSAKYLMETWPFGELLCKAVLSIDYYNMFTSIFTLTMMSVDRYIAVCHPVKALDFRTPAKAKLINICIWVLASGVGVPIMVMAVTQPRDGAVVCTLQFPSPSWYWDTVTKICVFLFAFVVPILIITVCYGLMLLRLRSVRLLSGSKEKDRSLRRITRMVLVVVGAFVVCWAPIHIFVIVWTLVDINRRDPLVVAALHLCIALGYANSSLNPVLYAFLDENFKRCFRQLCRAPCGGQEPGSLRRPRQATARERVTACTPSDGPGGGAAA
Procedure: (§2) Briefly, the agonists [^3H]DPDPE (30-60 Ci/mmol, NEN-DuPont) and [^3H]DAGO (30-60 Ci/mmol, Amersham) were used to label δ and μ sites, respectively, under saturation binding conditions (2 hrs at 22° C.). Excess unlabeled peptide (2 μM) established non-specific binding levels and the labeled membranes were rapidly filtered on Whatman GF/C glass fibre filters, thoroughly washed, dried and measured for radioactivity using CytoScint (ICN, Irvine, Calif.). […] The affinity constants (Ki) were calculated according to Cheng and Prusoff (Biochem. Pharmacol. 22: 3099-3108 (1973)).

δ-opioid receptors [2] = target: T1, δ-opioid receptors; experiment: Rat brain synaptosome (P2) binding, δ antagonist [3H]N,N(CH3)2-Dmt-Tic-OH (Example 47); settings: for Antagonist K1μ/Kiδ: selectivity, Kiδ from antagonist radioligand [3H]N,N(CH3)2-Dmt-Tic-OH
Procedure: as §2

μ-opioid receptors = target: T2, μ-opioid receptors (Rattus norvegicus, UniProt P33535); experiment: Rat brain synaptosome (P2) binding, [3H]DAGO (Example 47)
T2 construct: assayed with a rat brain synaptosomal preparation (P2); from tissue; host or cells: rat brain P2 synaptosomes
T2 sequence (P33535 whole entry): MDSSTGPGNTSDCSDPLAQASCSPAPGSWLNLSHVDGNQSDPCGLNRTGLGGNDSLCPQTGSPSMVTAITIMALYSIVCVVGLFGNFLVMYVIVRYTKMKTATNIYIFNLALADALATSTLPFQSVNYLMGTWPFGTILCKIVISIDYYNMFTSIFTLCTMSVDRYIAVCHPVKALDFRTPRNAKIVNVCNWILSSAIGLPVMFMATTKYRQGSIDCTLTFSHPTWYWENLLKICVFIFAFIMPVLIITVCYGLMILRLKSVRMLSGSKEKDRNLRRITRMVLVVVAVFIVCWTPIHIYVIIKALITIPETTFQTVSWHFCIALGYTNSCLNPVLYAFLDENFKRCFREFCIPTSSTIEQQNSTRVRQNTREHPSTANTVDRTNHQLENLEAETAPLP

δ receptors = δ receptors (Mus musculus, UniProt P32300)
Chain of δ receptors (P32300 whole entry): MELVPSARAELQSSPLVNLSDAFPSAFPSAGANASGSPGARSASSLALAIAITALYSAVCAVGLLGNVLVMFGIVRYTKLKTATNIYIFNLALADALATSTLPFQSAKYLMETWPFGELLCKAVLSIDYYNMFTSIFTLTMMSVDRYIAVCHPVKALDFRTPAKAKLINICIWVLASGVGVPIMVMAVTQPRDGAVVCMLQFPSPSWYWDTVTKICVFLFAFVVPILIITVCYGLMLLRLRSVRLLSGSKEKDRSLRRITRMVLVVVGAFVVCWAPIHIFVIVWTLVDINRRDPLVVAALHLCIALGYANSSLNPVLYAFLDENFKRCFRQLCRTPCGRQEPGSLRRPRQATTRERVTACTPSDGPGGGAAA
Procedure: (§1) The functional bioactivity of the present inventive compounds was assessed using standard functional bioassays of δ and μ activity in MVD and GPI (Salvadori et al. (1995), supra; and Salvadori et al., J. Med. Chem. 36: 3748-3756 (1993)). […] Dose-response curves were obtained (Salvadori et al. (1995), supra) for both tissues. […] Data were derived from at least four independent tissue samples and dose-response curves from which the pA2 values were determined (Salvadori et al. (1997), supra) according to Arunlakshana and Schild (Br. J. Pharmacol. 14: 48-58 (1959)).

μ receptors = μ receptors (Cavia porcellus, UniProt P97266); experiment: Guinea pig ileum (GPI) functional bioassay (Example 48)
Chain of μ receptors (P97266 whole entry, looked up): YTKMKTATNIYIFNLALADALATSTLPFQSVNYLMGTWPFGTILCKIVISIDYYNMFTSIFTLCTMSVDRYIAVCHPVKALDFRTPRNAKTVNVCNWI
Procedure: as §1

hMDR-1 = hMDR-1 (Homo sapiens, UniProt P08183); experiment: Calcein AM assay for Pgp in hMDR-1 transfected G-185 fibroblasts (Example 49); settings: calcein fluorescence
Chain of hMDR-1 (P08183 whole entry): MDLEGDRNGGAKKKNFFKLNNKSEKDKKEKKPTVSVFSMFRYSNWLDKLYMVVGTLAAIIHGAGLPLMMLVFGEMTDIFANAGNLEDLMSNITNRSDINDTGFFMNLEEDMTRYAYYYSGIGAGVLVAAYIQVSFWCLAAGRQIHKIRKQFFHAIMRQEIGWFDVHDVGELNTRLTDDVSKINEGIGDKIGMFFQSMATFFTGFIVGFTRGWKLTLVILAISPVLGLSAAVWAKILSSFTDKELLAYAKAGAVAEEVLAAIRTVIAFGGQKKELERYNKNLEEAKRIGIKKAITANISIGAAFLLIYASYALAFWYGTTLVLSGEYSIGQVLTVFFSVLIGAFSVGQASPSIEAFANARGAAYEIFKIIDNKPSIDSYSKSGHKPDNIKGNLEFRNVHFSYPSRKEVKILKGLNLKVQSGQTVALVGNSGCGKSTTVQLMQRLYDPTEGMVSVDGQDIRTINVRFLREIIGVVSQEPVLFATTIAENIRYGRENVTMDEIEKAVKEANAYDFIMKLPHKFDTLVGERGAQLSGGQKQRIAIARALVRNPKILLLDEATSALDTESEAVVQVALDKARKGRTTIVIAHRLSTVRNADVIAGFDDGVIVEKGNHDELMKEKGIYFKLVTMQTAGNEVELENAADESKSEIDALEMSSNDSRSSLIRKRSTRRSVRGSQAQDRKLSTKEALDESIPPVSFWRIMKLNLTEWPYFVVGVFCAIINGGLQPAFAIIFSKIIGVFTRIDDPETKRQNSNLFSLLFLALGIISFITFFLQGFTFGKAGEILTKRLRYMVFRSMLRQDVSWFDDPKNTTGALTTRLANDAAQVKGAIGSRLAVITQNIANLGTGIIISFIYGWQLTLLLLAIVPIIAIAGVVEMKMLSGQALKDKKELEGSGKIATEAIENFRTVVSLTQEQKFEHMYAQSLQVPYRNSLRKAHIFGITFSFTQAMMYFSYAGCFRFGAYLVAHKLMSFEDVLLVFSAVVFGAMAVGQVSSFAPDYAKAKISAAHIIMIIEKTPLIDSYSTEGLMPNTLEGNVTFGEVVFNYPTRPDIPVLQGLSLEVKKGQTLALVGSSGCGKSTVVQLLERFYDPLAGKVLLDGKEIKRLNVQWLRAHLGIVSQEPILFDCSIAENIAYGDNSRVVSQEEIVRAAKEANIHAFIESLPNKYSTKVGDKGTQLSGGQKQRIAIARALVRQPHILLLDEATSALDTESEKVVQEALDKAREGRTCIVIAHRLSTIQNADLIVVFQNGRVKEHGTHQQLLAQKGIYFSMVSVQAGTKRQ
Procedure: Stably transfected G-185 fibroblasts containing hMDR-1 and NIH 3T3 cell lines were grown to confluent monolayers in DMEM containing 4.5 g glucose/1, 10% fetal calf serum, L-glutamine, penicillin (50 units/ml), streptomycin (50 μg/ml) and 1 mM sodium pyruvate in 5% CO2 at 37° C. G-185 cells were maintained in […] colchicine.
The assay for Pgp is based on the diffusion of non-fluorescent calcein AM across the cell membrane. Calcein AM is then hydrolyzed and accumulates as the fluorescent calcein. In transfected cells expressing excess hMDR-1, Pgp extrudes calcein AM from the cell before hydrolysis occurs; inhibition of hMDR-1 results in the accumulation of intracellular calcein. Transfected G-185 cells and the NIH 3T3 cells were analyzed in triplicate using seven graded dosages of verapamil or the opioid peptides in 96-well plates. Cells (2.5×10^6/well) were incubated in 100 μl culture medium for 15 min at 37° C. and 50 μl of 1 μM calcein AM in PBS, plus 50 μl of verapamil or one of the present inventive compounds in PBS, or 100 μl of PBS alone (control) were added. Cells were mixed and incubated for 15 min at 37° C., then centrifuged for 5 min at 2,000×g, and then washed three times in 200 μl PBS. Cell pellets were resuspended in 200 μl PBS and transferred to white Microfluor Plates (Nunc, Copenhagen, Denmark) in order to measure calcein-specific fluorescence (494 nm absorption; 517 nm emission). Internal controls were carried out with each experiment using verapamil and PBS in order to compare the consistency between cell preparations. Means±SE (error bars) were determined and plotted using Prism™ (GraphPad, San Diego, Calif.).

[3] = rat brain synaptosomes (P2), mean ± SEM, n in parentheses, read-out: Kiδ(nM) [^3H]DPDPE
[4] = rat brain synaptosomes (P2), δ antagonist radioligand, mean ± SEM, n in parentheses, read-out: Kiδ(nM) [^3H]N,N(CH3)2-Dmt-Tic-OH
[5] = rat brain synaptosomes (P2), mean ± SEM, n in parentheses, read-out: Kiμ (nM) [^3H]DAGO
[6] = MVD Ke(nM), δ antagonism, Ke = antilog of pA2
[7] = MVD pA2 (range), δ antagonism against deltorphin C, mean (range)
[8] = δ antagonism, Ke = antilog of pA2

SMILES	Ki (δ-opioid receptors [1]; [3]) [nM]	Agonist K1μ/Kiδ (δ-opioid receptors [1])	Ki (δ-opioid receptors [2]; [4]) [nM]	Antagonist K1μ/Kiδ (δ-opioid receptors [2])	Ki (μ-opioid receptors; [5]) [nM]	bioactivity on MVD (δ), in words (δ receptors)	EC50 (μ receptors) [nM]	MVD Ke (δ receptors; [8]) [nM]	δ/μ selectivity, in words (δ-opioid receptors [1])	bioactivity on GPI (μ), in words (μ receptors)	further results
Cc1cc(O)cc(C)c1C[C@H](N)C(=O)N1Cc2ccccc2C[C@H]1CC(=O)O [Compound 1, H-Dmt-βTic-OH]	0.85 ± 0.2	498	0.71 ± 0.04	590	418 ± 86	highest δ-antagonist functional bioactivities	> 10000	–	–	–	Kb (δ receptors; [6]): 1.41 nM; Kb (δ receptors; [7]): 1.58 nM
Cc1cc(O)cc(C)c1CC(CN)C(=O)N1Cc2ccccc2C[C@H]1C(=O)O (stereo partly drawn) [Compound 2, H-αDmt-Tic-OH]	11.2 ± 3.5	155	475 ± 37	4	1740 ± 16	–	–	–	–	–	–
Cc1cc(O)cc(C)c1C[C@@H](C(=O)N1Cc2ccccc2C[C@H]1C(=O)O)N1CCCC1 [Compound 4, [des-NH2-α-pyrrolidine-1-yl]-Dmt-Tic-OH]	1.62 ± 0.19	502	1.42 ± 0.14	573	814 ± 65	detrimental for all bioactivity measurements on MVD	> 10000	121	–	–	Kb (δ receptors; [7]): 126 nM
Cc1cc(O)cc(C)c1C[C@@H](C(=O)N1Cc2ccccc2C[C@H]1C(=O)O)n1cccc1 [Compound 5, [des-NH2-α-pyrrole-1-yl]-Dmt-Tic-OH]	16.6 ± 2.5	338	9.94 ± 2.5	562	5590 ± 411	detrimental for all bioactivity measurements on MVD	–	408	–	–	–
Cc1cc(O)cc(C)c1C[C@H](N)C(=O)N1Cc2ccccc2C[C@H]1C(=O)NN [Compound 6, H-Dmt-Tic-NHNH2] (H-[Dmt]-[Tic]-NHNH2)	0.99 ± 0.04	86	42 ± 7.9	2	85.1 ± 7.3	–	–	–	essentially nonselective	–	–
COC(=O)[C@@H]1Cc2ccccc2CN1C(=O)[C@@H](N)Cc1c(C)cc(O)cc1C [Compound 8, H-Dmt-Tic-OMe] (H-[Dmt]-[Tic]-OMe)	9.64 ± 2.2	44	500 ± 90	0.8	423 ± 25	–	–	–	weakly μ selective	–	δ affinity, in words (δ-opioid receptors [1]): lost high δ affinity
Cc1cc(O)cc(C)c1C[C@H](N)C(=O)N1Cc2ccccc2C[C@H]1C(=O)Nc1nnn[nH]1 [Compound 10, H-Dmt-Tic-NH-tetrazole-5-yl]	0.7 ± 0.03	53	9.75 ± 1.73	4	37 ± 4.5	weak δ antagonist	–	36.3	essentially nonselective	very minimal activity on GPI	–
Cc1cc(O)cc(C)c1C[C@H](N)C(=O)N1Cc2ccccc2C[C@@H]1C(=O)NC12CC3CC(CC(C3)C1)C2 [Compound 12, H-Dmt-D-Tic-NH-1-adamantane]	–	0.01	–	0.004	–	–	1680	–	moderately μ selective	μM activity on GPI	Ki (δ-opioid receptors [1]): 24.5 ± 4.9 nM; δ affinity, in words (δ-opioid receptors [1]): lost high δ affinity; Ki (δ-opioid receptors [2]): 70.3 ± 7.25 nM; Ki (μ-opioid receptors): 0.26 ± 0.08 nM; Kb (δ receptors; [6]): > 10000 nM
CNC(=O)[C@@H]1Cc2ccccc2CN1C(=O)[C@H](Cc1c(C)cc(O)cc1C)N(C)C [Compound 13, N,N(Me)2-Dmt-Tic-NHMe]	0.54 ± 0.07	669	0.28 ± 0.02	1268	359 ± 62	–	–	0.41	–	weak μ antagonist	Kb (δ receptors; [7]): 0.407 nM; EC50 (μ receptors; μ agonism, read-out: GPI ED50): > 10000 nM; GPI Ke (μ receptors; μ antagonism): 0.39 µM; Kb (μ receptors; μ antagonism, mean (range), read-out: GPI pA2 (range) (converted)): 389 nM
Cc1cc(O)cc(C)c1C[C@@H](C(=O)N1Cc2ccccc2C[C@@H]1C(=O)NC12CC3CC(CC(C3)C1)C2)N(C)C [Compound 16, N,N(Me)2-Dmt-D-Tic-NH-1-adamantane]	–	0.36	–	0.42	–	greatly reduced bioactivity on MVD	4480	128	weakly μ selective	μM activity on GPI	Ki (δ-opioid receptors [1]): 140 ± 30 nM; δ affinity, in words (δ-opioid receptors [1]): lost high δ affinity; Ki (δ-opioid receptors [2]): 120 ± 25.9 nM; Ki (μ-opioid receptors): 50.5 ± 2.6 nM; Kb (δ receptors; [7]): 123 nM
CCN(CC)[C@@H](Cc1c(C)cc(O)cc1C)C(=O)N1Cc2ccccc2C[C@H]1C(=O)O [Compound 17, N,N(Et)2-DMT-Tic-OH]	–	35.3 ± 1.96 (3-5)	–	–	–	–	–	–	–	–	Ki (δ-opioid receptors [1]): 0.92 ± 0.19 nM
CNC(=O)[C@H](C)NC(=O)[C@@H]1Cc2ccccc2CN1C(=O)[C@@H](N)Cc1c(C)cc(O)cc1C [Compound 18, H-Dmt-Tic-Ala-NHMe] (H-[Dmt]-[Tic]-Ala-NHMe)	0.058 ± 0.01	100	0.12 ± 0.04	47	5.75 ± 0.72	very weak δ and μ agonism	290	–	–	very weak δ and μ agonism	EC50 (δ receptors): 1290 nM
COC(=O)[C@H](C)NC(=O)[C@@H]1Cc2ccccc2CN1C(=O)[C@@H](N)Cc1c(C)cc(O)cc1C [Compound 19, H-Dmt-Tic-Ala-OMe] (H-[Dmt]-[Tic]-Ala-OMe)	0.23 ± 0.09	48	0.14 ± 0.04	83	11.3 ± 1.87	–	–	–	–	–	–
C[C@@H](NC(=O)[C@@H](N)Cc1ccc(O)cc1)C(=O)NCC(=O)N(C)[C@@H](Cc1ccccc1)C(=O)NCCO [DAGO, H-Tyr-D-Ala-Gly-N-MePhe-Gly-ol]	–	–	–	–	–	–	–	–	–	–	inhibition of hMDR-1 (Pgp), in words (hMDR-1): inactive; also recorded: lack of inhibition
Cc1cc(O)cc(C[C@H](N)C(=O)N[C@H](Cc2ccccc2)C(=O)NCC(=O)N[C@H](C(=O)N[C@H](C(N)=O)C(C)C)C(C)C)c1C [DPD, H-Dmt-D-Phe-Gly-Val-Val-NH2]	–	–	–	–	–	–	–	–	–	–	inhibition of hMDR-1 (Pgp), in words (hMDR-1): inactive
Cc1cc(O)cc(C)c1CC(N)C(=O)N1Cc2ccccc2C[C@H]1C(=O)O (stereo partly drawn) [H-(R,S)Dmt-Tic-OH, reference compound] (H-[ξDmt]-[Tic]-OH)	–	–	–	–	1160 ± 327	–	–	–	–	–	Kb (δ receptors): 6.76 nM; EC50 (μ receptors; μ agonism, read-out: GPI ED50): > 10000 nM
